In brackets after ≈: the same amount, converted by molar mass. Like-named read-outs stand apart in the source and are kept apart here.
How the values were obtained:
[1] = Aqueous solubility at pH 7.4; type: physicochemical; details: aqueous phosphate buffer, thermodynamic from solid, pH 7.4, room temperature, mean ± SD [n]
Method: The concentration was quantified by HPLC with reference to a standard calibration curve. The solubility was calculated using the peak areas determined by integration of the peak found at the same retention time as the principal peak in the standard injection.

CYP2D6 = molecular target: T1, CYP2D6 (Homo sapiens, UniProt P10635); assay: Cytochrome P450 inhibition, CYP2D6; type: in vitro ADME; details: human liver microsomes; read-out: CYP450 isoform 2D6 IC50
T1 construct: tissue Cyprotex Discovery Limited; host or cells: human liver microsomes
Method: (§1) Testing was performed by Cyprotex Discovery Limited, Cheshire, UK. Six test compound concentrations (0.4, 1, 4, 10, 40 and 100 μM; final DMSO concentration 0.25%, final microsome concentration 0.25 mg·mL^−1) were either pre‐incubated for 30 min in the absence and presence of NADPH or underwent a 0 min pre‐incubation with human liver microsomes. At the end of the pre‐incubation period, the probe substrate for each cytochrome P450 (CYP450) isoform (30 μM) and NADPH (1 mM) were then added (final DMSO concentration 0.3%), and the samples were incubated for 5 min at 37°C. Probe substrates were as follows: 1A2 – phenacetin, 2C9 – diclofenac, 2C19 – mephenytoin, 2D6 – dextromethorphan, 3A4 – midazolam and testosterone. Samples were subjected to LC–MS/MS analysis to determine metabolite concentrations. A decrease in the formation of the metabolite compared with vehicle control was used to calculate an IC50 value (test compound concentration which produces 50% inhibition) for each experimental condition.

CYP450 enzymes = assay: Time-dependent cytochrome P450 inhibition; type: in vitro ADME, human; details: 30 min pre-incubation ± NADPH; in words
Method: as §1

[2] = Multiple ascending dose study, pharmacokinetics; type: in vivo; details: human; for AUC0–12h / Ae(0–12h) (%) / Ae(0–12h), amount excreted in urine / Oral clearance: mean (CV%); for estimated maximal CSF concentration / estimated mean CSF nadir at steady state (Cmin): calculated from plasma levels and CSF:plasma ratio; for Tmax / Cmax / half-life: plasma, oral
Method: A double‐blind, randomized, placebo‐controlled multiple ascending dose study was carried out at Linear Clinical Research Ltd, Nedlands, Australia. Each cohort consisted of eight healthy male subjects. Each subject received UE2343 or placebo twice daily (b.i.d ) (12 hourly) in the fed state for 9 days (Day 1 to Day 9) and once on the morning of Day 10 (19 doses in total). Dose cohorts were 10, 20 and 35 mg. Dose escalation and selection was dependent upon satisfactory review of the blinded safety (up to Day 17 ± 2) and plasma pharmacokinetics (up to Day 12) data from the preceding cohort. Safety, pharmacokinetic and pharmacodynamic assessments were made at pre‐determined time‐points during each part of the study.
(§2) Laboratory evaluation of clinical safety parameters was carried out using standard validated methods. Measurement of plasma pharmacodynamic markers [adrenocorticotropic hormone (ACTH), cortisol, 4‐androstenedione, testosterone and dehydroepiandrosterone sulphate (DHEA‐s)] was carried out using commercially available kits. Each method was fully validated prior to analysis. Urinary steroid metabolites were measured according to established methods (Boonen et al., 2013). UE2343 levels in plasma, urine and CSF was determined by LC–MS/MS using fully validated methods.
(§3) The data and statistical analysis comply with the recommendations on experimental design and analysis in pharmacology (Curtis et al., 2015). Levels of probability, P < 0.05 were deemed to constitute the threshold for statistical significance. Pharmacokinetic parameters, except Tmax (time of maximum observed drug concentration), are given as mean ± coefficient of variation (CV%). Tmax is given as median ± range. For each of the pharmacodynamic parameters [ACTH, cortisol, adrenal androgens, tetrahydrocortisols (THFs)/tetrahydrocortisone (THE) ratio], the maximum % change from baseline for each subject was subjected to ANOVA. For selected data, an additional covariate factor for the baseline was also included in the ANOVA/analysis of covariance (ANCOVA) model. Associated P‐values <0.05 for each comparison have been presented.

11β‐HSD1 in the liver = assay: Single ascending dose study, urinary THFs/THE ratio; type: in vivo; details: human
Method: A double‐blind, randomized, placebo‐controlled single ascending dose study was carried out at Simbec Research Ltd, Merthyr Tydfil, UK. Each cohort consisted of six healthy male subjects and two females of non‐child bearing potential. Two male ‘dose leader’ subjects (1 active : 1 placebo) were dosed first in each cohort. The remainder of the cohort (5 active : 1 placebo) were dosed 24 h later. Dose cohorts were 2, 5, 10, 18, 25 and 35 mg. Safety, pharmacokinetic and pharmacodynamic assessments were made at pre‐determined time‐points during each part of the study. Dose escalation was dependent upon satisfactory review of the blinded safety (up to Day 6) and pharmacokinetic (up to 24 h post‐dose) data from the preceding cohort.
as §2, §3
11β‐HSD1 is predominantly located in the liver and adipose tissue. Cortisol (F) and cortisone (E) are cleared from the liver via the enzymes 5α‐reductase and 3α‐HSD to generate tetrahydro (TH) metabolites that are eliminated in the urine. Measurement of urinary TH metabolite ratios thus provides a surrogate measure of 11β‐HSD1 inhibition in the liver (Best and Walker, 1997). Following a single dose of UE2343, there was a statistically significant reduction in the urinary THFs/THE ratio between 0 and 4 h at doses of 18, 25 and 35 mg, equating to a reduction of 58, 55 and 50% respectively (Figure 4A).

T1 sequence (P10635 whole entry, canonical isoform): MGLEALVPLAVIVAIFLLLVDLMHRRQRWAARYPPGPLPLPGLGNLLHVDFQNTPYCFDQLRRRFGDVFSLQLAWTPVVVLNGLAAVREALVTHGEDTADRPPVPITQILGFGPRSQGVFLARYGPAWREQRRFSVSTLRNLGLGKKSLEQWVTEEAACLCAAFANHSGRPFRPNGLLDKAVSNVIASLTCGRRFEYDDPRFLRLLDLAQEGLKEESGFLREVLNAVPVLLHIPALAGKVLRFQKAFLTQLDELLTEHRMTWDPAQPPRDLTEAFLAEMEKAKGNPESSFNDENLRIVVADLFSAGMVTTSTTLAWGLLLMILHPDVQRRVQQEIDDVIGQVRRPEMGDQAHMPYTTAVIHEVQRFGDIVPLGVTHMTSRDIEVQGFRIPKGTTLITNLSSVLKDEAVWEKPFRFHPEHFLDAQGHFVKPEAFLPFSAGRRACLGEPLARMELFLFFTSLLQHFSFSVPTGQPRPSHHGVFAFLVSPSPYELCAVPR

Structure (SMILES): O=C(c1csc(-c2cn[nH]c2)c1)N1C2CCC1CC(O)(c1ncccn1)C2 (stereo not shown) [compound 4]
- solubility [1]: 0.2 mg/mL (≈ 524 µM)
- IC50 (CYP2D6): > 50 µM
- time‐dependent inhibition of CYP450 enzymes (CYP450 enzymes): No time‐dependent inhibition
- AUC0–12h ([2]; 10 mg b.i.d, Day 1): 207 (79%) ng^.h·mL^−1
- Ae(0–12h) (%) ([2]; 10 mg b.i.d, Day 1): 0.35 (50%)
- Ae(0–12h), amount excreted in urine ([2]; 10 mg b.i.d, Day 1): 34.6 (50%) μg
- AUC0–12h ([2]; 10 mg b.i.d, Day 10): 1917 (66%) ng^.h·mL^−1
- Ae(0–12h) (%) ([2]; 10 mg b.i.d, Day 10): 4.08 (46%)
- Ae(0–12h), amount excreted in urine ([2]; 10 mg b.i.d, Day 10): 408 (46%) μg
- Oral clearance ([2]; 10 mg b.i.d, Day 10): 7.24 (60%) L·h^−1
- estimated maximal CSF concentration ([2]; 10 mg b.i.d): 20 ng/mL
- estimated mean CSF nadir at steady state (Cmin) ([2]; 10 mg b.i.d): 0.013 µg/mL
- AUC0–12h ([2]; 20 mg b.i.d, Day 1): 623 (69%) ng^.h·mL^−1
- Ae(0–12h) (%) ([2]; 20 mg b.i.d, Day 1): 0.54 (92%)
- Ae(0–12h), amount excreted in urine ([2]; 20 mg b.i.d, Day 1): 107 (92%) μg
- AUC0–12h ([2]; 20 mg b.i.d, Day 10): 3175 (30%) ng^.h·mL^−1
- Ae(0–12h) (%) ([2]; 20 mg b.i.d, Day 10): 3.22 (38%)
- Ae(0–12h), amount excreted in urine ([2]; 20 mg b.i.d, Day 10): 644 (38%) μg
- Oral clearance ([2]; 20 mg b.i.d, Day 10): 6.85 (33%) L·h^−1
- estimated maximal CSF concentration ([2]; 20 mg b.i.d): 34 ng/mL
- estimated mean CSF nadir at steady state (Cmin) ([2]; 20 mg b.i.d): 0.022 µg/mL
- AUC0–12h ([2]; 35 mg b.i.d, Day 1): 1843 (33%) ng^.h·mL^−1
- Ae(0–12h) (%) ([2]; 35 mg b.i.d, Day 1): 1.03 (46%)
- Ae(0–12h), amount excreted in urine ([2]; 35 mg b.i.d, Day 1): 362 (46%) μg
- AUC0–12h ([2]; 35 mg b.i.d, Day 10): 7909 (36%) ng^.h·mL^−1
- Ae(0–12h) (%) ([2]; 35 mg b.i.d, Day 10): 3.84 (29%)
- Ae(0–12h), amount excreted in urine ([2]; 35 mg b.i.d, Day 10): 1345 (29%) μg
- Oral clearance ([2]; 35 mg b.i.d, Day 10): 5.02 (43%) L·h^−1
- estimated maximal CSF concentration ([2]; 35 mg b.i.d): 81 ng/mL
- estimated mean CSF nadir at steady state (Cmin) ([2]; 35 mg b.i.d): 0.05 µg/mL
- day by which steady state was achieved ([2]; 12 hourly dosing): ≤ 5 days
- fraction excreted in urine in the dosing interval (% Ae) ([2]; at steady state (Day 10)): approximately 4%
- increase in AUC0–12 from first dose to steady state ([2]; highest dose level (35 mg b.i.d), in words): greater than fourfold
- Tmax ([2]; single and multiple dosing, range, read-out: plasma Tmax): 3 to 6 h
- Cmax ([2]; male, 10 mg, 10 mg b.i.d, Day 1, mean (CV%)): 0.0291 µg/mL
- Tmax ([2]; male, 10 mg, 10 mg b.i.d, Day 1, median (range), read-out: Tmax): 6 h
- Cmax ([2]; male, 10 mg, 10 mg b.i.d, Day 10, mean (CV%)): 0.207 µg/mL
- half-life ([2]; male, 10 mg, 10 mg b.i.d, Day 10, mean (CV%), read-out: t 1/2 (converted)): 13.8 h
- Tmax ([2]; male, 10 mg, 10 mg b.i.d, Day 10, median (range), read-out: Tmax): 4 h
- Cmax ([2]; male, 20 mg, 20 mg b.i.d, Day 1, mean (CV%)): 0.0892 µg/mL
- Tmax ([2]; male, 20 mg, 20 mg b.i.d, Day 1, median (range), read-out: Tmax): 4 h
- Cmax ([2]; male, 20 mg, 20 mg b.i.d, Day 10, mean (CV%)): 0.365 µg/mL
- half-life ([2]; male, 20 mg, 20 mg b.i.d, Day 10, mean (CV%), read-out: t 1/2 (converted)): 11.2 h
- Tmax ([2]; male, 20 mg, 20 mg b.i.d, Day 10, median (range), read-out: Tmax): 3 h
- Cmax ([2]; male, 35 mg, 35 mg b.i.d, Day 1, mean (CV%)): 0.268 µg/mL
- Tmax ([2]; male, 35 mg, 35 mg b.i.d, Day 1, median (range), read-out: Tmax): 4 h
- Cmax ([2]; male, 35 mg, 35 mg b.i.d, Day 10, mean (CV%)): 0.892 µg/mL
- half-life ([2]; male, 35 mg, 35 mg b.i.d, Day 10, mean (CV%), read-out: t 1/2 (converted)): 9.99 h
- Tmax ([2]; male, 35 mg, 35 mg b.i.d, Day 10, median (range), read-out: Tmax): 4 h
- half-life ([2]; male, 35 mg, multiple doses 10, 20 and 35 mg every 12 h, range across doses, read-out: terminal t 1/2): 10 to 14 h
- Tmax ([2]; male, multiple doses, range across doses, read-out: median time to peak concentration following each dose): 4 to 6 h
- reduction in the urinary THFs/THE ratio (11β‐HSD1 in the liver; single dose 10 mg, 4–8 h): 79%
- reduction in the urinary THFs/THE ratio (11β‐HSD1 in the liver; single dose 18 mg, 0–4 h): 58%
- reduction in the urinary THFs/THE ratio (11β‐HSD1 in the liver; single dose 18 mg, 4–8 h): 86%
- reduction in the urinary THFs/THE ratio (11β‐HSD1 in the liver; single dose 25 mg, 0–4 h): 55%
- reduction in the urinary THFs/THE ratio (11β‐HSD1 in the liver; single dose 25 mg, 4–8 h): 83%
- reduction in the urinary THFs/THE ratio (11β‐HSD1 in the liver; single dose 35 mg, 0–4 h): 50%
- reduction in the urinary THFs/THE ratio (11β‐HSD1 in the liver; single dose 35 mg, 4–8 h): 83%

Source: article PMC5301048, “Selection and early clinical evaluation of the brain‐penetrant 11β‐hydroxysteroid dehydrogenase type 1 (11β‐HSD1) inhibitor UE2343 (Xanamem™)” (British Journal of Pharmacology, 2017)
